Experimental data published in article PMC6627609, “Targeting Quorum Sensing: High-Throughput Screening to Identify Novel LsrK Inhibitors” (International Journal of Molecular Sciences, 2019).

Each compound was assayed against LsrK (Salmonella typhimurium, UniProt Q8ZKQ6) (assay: biochemical). Details: not given.
Assay type: biochemical, S. typhimurium

Chain of LsrK (Q8ZKQ6 whole entry): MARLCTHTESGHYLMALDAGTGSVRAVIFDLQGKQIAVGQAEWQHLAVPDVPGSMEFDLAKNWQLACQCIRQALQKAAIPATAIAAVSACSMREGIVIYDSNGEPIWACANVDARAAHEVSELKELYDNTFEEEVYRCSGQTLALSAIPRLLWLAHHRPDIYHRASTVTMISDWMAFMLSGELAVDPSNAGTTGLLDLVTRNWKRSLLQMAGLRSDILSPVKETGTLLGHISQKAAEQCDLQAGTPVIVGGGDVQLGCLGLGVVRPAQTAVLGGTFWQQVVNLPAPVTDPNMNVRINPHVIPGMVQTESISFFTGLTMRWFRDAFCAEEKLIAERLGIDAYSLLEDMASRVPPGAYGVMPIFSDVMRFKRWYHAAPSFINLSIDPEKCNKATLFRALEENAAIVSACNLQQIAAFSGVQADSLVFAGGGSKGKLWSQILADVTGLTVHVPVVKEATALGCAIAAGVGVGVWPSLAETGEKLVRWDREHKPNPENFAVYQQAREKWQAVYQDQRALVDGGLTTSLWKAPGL

For `COc1ccc(C(=O)N2CCCC2=O)cc1`, which inhibition at 50 µM is on record?
Its inhibition at 50 µM is 0%.

How did the inhibition at 50 µM turn out when `COC(=O)[C@H](Cc1ccccc1)NC(=O)[C@@H](N)CC(=O)O` was run?
Its inhibition at 50 µM is 0%.

Which inhibition at 50 µM does the source give for `C=CC1=C(C(=O)O)N2C(=O)[C@@H](NC(=O)/C(=N\O)c3csc(N)n3)[C@H]2SC1` here?
The inhibition at 50 µM was 17%.

For `CCN(CC)C(=S)SSC(=S)N(CC)CC`, which inhibition at 50 µM is on record?
Its inhibition at 50 µM is 154%.

How did the inhibition at 50 µM turn out when `CCN(CC)C(=O)c1ccc(O)c(OC)c1` was run?
Its inhibition at 50 µM is 0%.

With `CNc1ccccc1C(=O)O` as the compound, how does the inhibition at 50 µM read?
Its inhibition at 50 µM is 1%.

Which inhibition at 50 µM does the source give for `CCOC(=O)[C@H](CCc1ccccc1)N[C@@H](C)C(=O)N1[C@H](C(=O)O)C[C@@H]2CCC[C@@H]21` here?
The inhibition at 50 µM was 3%.

For `CC(=O)Nc1ccc(S(=O)(=O)Nc2ccc([N+](=O)[O-])cc2)cc1`, which inhibition at 50 µM is on record?
The inhibition at 50 µM was 1%.

`CC1=C(CC(=O)O)c2cc(F)ccc2/C1=C\c1ccc([S+](C)[O-])cc1` (stereo not drawn) was tested. Which inhibition at 50 µM did it give?
Its inhibition at 50 µM is 21%.

For `CN1CC(=O)N2[C@H](c3ccc4c(c3)OCO4)c3[nH]c4ccccc4c3C[C@@H]2C1=O`, which inhibition at 50 µM is on record?
The inhibition at 50 µM was 1%.

How did the inhibition at 50 µM turn out when `COc1ccc2c(c1)OC[C@@H](Cc1ccc(OC)c(OC)c1)[C@H]2O` was run?
The inhibition at 50 µM was 2%.

Which inhibition at 50 µM does the source give for `COc1ccc(/C=C/C(=O)Nc2ccccc2C(=O)O)cc1OC` here?
The inhibition at 50 µM was 15%.

How did the inhibition at 50 µM turn out when `Nc1nc(N)c2nc(-c3ccccc3)c(N)nc2n1` was run?
The inhibition at 50 µM was 0%.

For `CCOC(N)=O`, which inhibition at 50 µM is on record?
Its inhibition at 50 µM is 0%.

Which inhibition at 50 µM does the source give for `CCCCC(=O)N(Cc1ccc(-c2ccccc2-c2nnn[nH]2)cc1)[C@H](C(=O)O)C(C)C` here?
Its inhibition at 50 µM is 1%.

`CC(C)CC(NC(=O)[C@H](C)N)C(=O)O` (mixture of isomers) [ALANYL-dl-LEUCINE] was tested. Which inhibition at 50 µM did it give?
Its inhibition at 50 µM is 2%.

Which inhibition at 50 µM does the source give for `OC[C@H]1O[C@@H](O[C@@H]2[C@@H](CO)OC(O)(CO)[C@H]2O)[C@H](O)[C@@H](O)[C@H]1O` (mixture of isomers) [LACTULOSE] here?
The inhibition at 50 µM was 2%.

Which inhibition at 50 µM does the source give for `Nc1ccccc1S(N)(=O)=O` [2-AMINOBENZENESULFONAMIDE] here?
Its inhibition at 50 µM is 1%.

For `COC1=CC(=O)C(C(=O)c2ccccc2)=CC1=O` [2-BENZOYL-5-METHOXYBENZOQUINONE], which inhibition at 50 µM is on record?
The inhibition at 50 µM was 38%.

`Sc1nc2ccccc2s1` [2-MERCAPTOBENZOTHIAZOLE] was tested. Which inhibition at 50 µM did it give?
Its inhibition at 50 µM is 1%.

With `COC1(C)CCC2OC2(C)CCC2C1CC2(C)C` (stereo not drawn) [2-METHOXY-5 (6)EPOXY-TETRAHYDROCARYOPHYLLENE] as the compound, how does the inhibition at 50 µM read?
The inhibition at 50 µM was 0%.

Same assay, conditions: 50 µM

How did the “Inhibition (%)” value turn out when `CC1(C)C2CC(=O)[C@]3(C)C(CC[C@@]4(C)[C@H](c5ccoc5)OC(=O)C5OC543)[C@@]2(C)[C@@H](O)C[C@H]1O` (stereo partly drawn) was run?
Its value is 2.

Which “Inhibition (%)” value does the source give for `CCOc1cccc(C(=O)c2ccc(O)c(O)c2O)c1` here?
The value was 11.

With `COC(=O)NC(=S)Nc1ccccc1NC(=S)NC(=O)OC` as the compound, how does the “Inhibition (%)” value read?
The value was 3.

Which “Inhibition (%)” value does the source give for `CC[C@H](C=C[C@@H](C)[C@H]1CC[C@H]2[C@@H]3CCC4=CC(=O)CC[C@]4(C)[C@H]3CC[C@]12C)C(C)C` here?
Its value is 1.

For “3-BROMO-4-METHYL-3.4-HEXAMETHYLENE-3.4-DIHYDRODIAZETE-1.2-DIOXIDE”, which “Inhibition (%)” value is on record?
Its value is 1.

With `C=CC[S+]([O-])C[C@H](N)C(=O)O` (mixture of isomers) [L(+/-)-ALLIIN] as the compound, how does the “Inhibition (%)” value read?
Its value is 44.

`COc1cc(O)c(C(=O)/C=C/c2ccc(OC)c(O)c2)c(OC)c1` [2'.3-DIHYDROXY-4.4'.6'-TRIMETHOXYCHALCONE] was tested. Which “Inhibition (%)” value did it give?
The value was 2.

With `COc1ccc(/C=C/C(=O)c2ccc(O)cc2O)cc1` [2'.4'-DIHYDROXY-4-METHOXYCHALCONE] as the compound, how does the “Inhibition (%)” value read?
Its value is 2.

With `O=C(/C=C/c1ccccc1)c1ccc(O[C@@H]2O[C@H](CO)[C@@H](O)[C@H](O)[C@H]2O)cc1O` [2'.4'-DIHYDROXYCHALCONE 4'-GLUCOSIDE] as the compound, how does the “Inhibition (%)” value read?
Its value is 2.

How did the “Inhibition (%)” value turn out when `O=C(/C=C/c1ccccc1)c1ccc(O)cc1O` [2'.4'-DIHYDROXYCHALCONE] was run?
Its value is 19.

`COc1cc(O)c(C(=O)/C=C/c2ccc(O)c(OC)c2)c(OC)c1` [2'.4-DIHYDROXY-3.4'.6'-TRIMETHOXYCHALCONE] was tested. Which “Inhibition (%)” value did it give?
The value was 1.

With `O=C(/C=C/c1ccc(O)cc1)c1ccccc1O` [2'.4-DIHYDROXYCHALCONE] as the compound, how does the “Inhibition (%)” value read?
Its value is 58.

With `COc1ccc(/C=C/C(=O)c2cc(O)ccc2O)cc1` [2'.5'-DIHYDROXY-4-METHOXYCHALCONE] as the compound, how does the “Inhibition (%)” value read?
Its value is 102.

How did the “Inhibition (%)” value turn out when `COc1ccc(C(=O)O)c(O)c1OC` [2-HYDROXY-3.4-DIMETHOXYBENZOIC ACID] was run?
Its value is 1.

Same assay, conditions: read-out: IC50 against LsrK

With `COc1ccc(/C=C/C(=O)c2cc(O)ccc2O)cc1` [2'.5'-DIHYDROXY-4-METHOXYCHALCONE] as the compound, how does the IC50 read?
Its IC50 is over 50 µM.
